The test system of experiment [1] is aMCI subjects. The experiment is described as follows: Verbal Paired Associates Test - Recognition. Conditions: 125 mg twice a day for two weeks. In kind it is in vivo, human. As to the method:
A within-subjects trial of 8 weeks duration, involving 17 amnestic MCI (aMCI) subjects and 17 age-matched controls with a low dose treatment of levetiracetam is conducted. During the course of the study, each aMCI subject receives both drug and placebo treatments separately in two periods of two weeks each, with the order of treatments among different aMCI subjects counterbalanced (see FIG. 7). Age-matched control subjects treated with placebo serve as a further control. Cognitive testing and fMRI imaging data are obtained from the subjects after each two week period of drug/placebo treatment.
All participants undergo neuropsychological evaluation at the time of assessment for treatment efficacy (Visits 1 and 2), as well as at the Baseline Visit. […]
As described above, the drug treatment period is the two weeks preceding Visit 1 or 2 (with the two week period preceding the other Visit being the placebo phase). For the subjects receiving the drug treatment, half a scored 250 mg tablet of levetiracetam is used to achieve a dose of […], which is approximately 3.6 mg/kg/day (assuming an average adult human weight of 70 kg).

Experiment [2] has as its system DG/CA3. Put plainly: fMRI activity during explicit 3-alternative forced choice task, DG/CA3. The class given is in vivo, human. Conditions: aMCI subjects, 125 mg twice a day for two weeks, versus placebo. As for the experimental part:
A within-subjects trial of 8 weeks duration, involving 17 amnestic MCI (aMCI) subjects and 17 age-matched controls with a low dose treatment of levetiracetam is conducted. During the course of the study, each aMCI subject receives both drug and placebo treatments separately in two periods of two weeks each, with the order of treatments among different aMCI subjects counterbalanced (see FIG. 7). Age-matched control subjects treated with placebo serve as a further control. Cognitive testing and fMRI imaging data are obtained from the subjects after each two week period of drug/placebo treatment. As described above, the drug treatment period is the two weeks preceding Visit 1 or 2 (with the two week period preceding the other Visit being the placebo phase). […] Imaging data are obtained through high-resolution methods developed in the Stark laboratory. Data are collected on a Phillips 3 Tesla scanner (Eindhoven, The Netherlands) equipped with an 8-channel SENSE (Sensitivity Encoding) head coil, located at the F.M. Kirby Research Center for Functional Brain Imaging at the Kennedy Krieger Institute (Baltimore, Md.). […] Group data are analyzed using a two-way Analysis of Variance (ANOVA) with trial types and group as fixed factors, and subject as a random factor nested within group. […]

As for `CC[C@@H](C(N)=O)N1CCCC1=O` [levetiracetam, (2S)-2-(2-oxopyrrolidin-1-yl) butanamide], the “performance in Verbal Paired Associates Test - Recognition” value in experiment [1] is “fail to rescue performance”. In addition, the “DG/CA3 activity during lure stimuli correctly identified as similar” value in experiment [2] is given as “reduces DG/CA3 hyper-activity”.

The values above are taken from patent US10624875B2, “Methods and compositions for treating schizophrenia” (The Johns Hopkins University, priority 2012, dated 2020).
